One assay relates to CDK4/6 protein. Put plainly: Western-blot determination of CDK4/6 protein degradation (DC50) in T-47D cells. In kind it is cell-based, human. Conditions: 24 h drug treatment, read-out: DC50(nM)/T-47D cell line.
A further assay concerns SR cells. As to the kind of experiment: Half inhibitory concentration (IC50) on ALK-positive SR cell proliferation (CCK-8). In kind it is cell-based. As to conditions: Homo sapiens. As to the method: ALK-positive SR cells (human large cell immunoblastic lymphoma) were purchased from the American Type Culture Collection (ATCC); H3122 cells (human non-small cell lung cancer) were from the Shanghai University of Science and Technology Lin Haifan's research group.
The cells used in this present disclosure were cultured in a 37° C. incubator containing 5% CO2.
SR cells were seeded in 100 μL RPMI1640 complete medium at a density of 10,000 cells/well. 100 μL of the inoculated cells were treated with 0.5 μL diluted PROTAD compound of the present disclosure to be tested at 10 successively decreasing concentrations (starting at the highest concentration of 10 μM; 5-fold serial dilutions) After the cells were treated with the drug for 72 h, cell viability was determined according to the CCK-8 reagent operating instructions. The negative control was DMSO, and the positive control was a commercial inhibitor. After CCK-8 treatment for 2 h, the value of O.D.450 was measured using a microplate reader.

Where [1] appears, read: SR cells, 72 h drug treatment, CCK-8, read-out: IC50 (nM)/ SR cell line.

Read-outs that look alike come from different tables or passages of the source. A value given as a limit tells only on which side of the number the result lay.

For the compound `CC(=O)c1c(C)c2cnc(Nc3ccc(N4CCN(C(=O)COCCOCCOCCSc5cccc6c5C(=O)N(C5CCC(=O)NC5=O)C6=O)CC4)cn3)nc2n(C2CCCC2)c1=O` (centres unmarked) [SIAIS219060, 4-((2-(2-(2-(2-(4-(6-((6-acetyl-8-cyclopentyl-5-methyl-7-oxo-7,8-dihydropyrido[2,3-d]pyrimidin-2-yl)amino)pyridin-3-yl)piperazin-1-yl)-2-oxoethoxy)ethoxy)ethoxy)ethyl)thio)-2-(2,6-dioxopiperidin-3-yl)isoindoline-1,3-dione], the DC50 with CDK4/6 protein was in the range of 1 to 10 nM. As to `CN(C)C(=O)c1cc2cnc(Nc3ccc(N4CCN(C(=O)COCCOCCSc5cccc6c5C(=O)N(C5CCC(=O)NC5=O)C6=O)CC4)cn3)nc2n1C1CCCC1` (centres unmarked) [SIAIS219112, 7-cyclopentyl-2-((5-(4-(2-(2-(2-((2-(2,6-dioxopiperidin-3-yl)-1,3-dioxoisoindolin-4-yl)thio)ethoxy)ethoxy)acetyl)piperazin-1-yl)pyridin-2-yl)amino)-N,N-dimethyl-7H-pyrrolo[2,3-d]pyrimidine-6-carboxamide], the DC50 with CDK4/6 protein lay in the range of 0.04 to 0.2 nM. Turning to `CN(C)C(=O)c1cc2cnc(Nc3ccc(N4CCN(C(=O)COCCOCCOCCSc5cccc6c5C(=O)N(C5CCC(=O)NC5=O)C6=O)CC4)cn3)nc2n1C1CCCC1` (centres unmarked) [SIAIS219113, 7-cyclopentyl-2-((5-(4-(2-(2-(2-(2-((2-(2,6-dioxopiperidin-3-yl)-1,3-dioxoisoindolin-4-yl)thio)ethoxy)ethoxy)ethoxy)acetyl)piperazin-1-yl)pyridin-2-yl)amino)-N,N-dimethyl-7H-pyrrolo[2,3-d]pyrimidine-6-carboxamide], the DC50 in the assay with CDK4/6 protein was < 1 nM. On to `CCc1cc2c(cc1N1CCC(NC(=O)CCCSc3cccc4c3C(=O)N(C3CCC(=O)NC3=O)C4=O)CC1)C(C)(C)c1[nH]c3cc(C#N)ccc3c1C2=O` (centres unmarked) [SIAIS219013, N-(1-(3-cyano-9-ethyl-6,6-dimethyl-11-oxo-6,11-dihydro-5H-benzo[b]carbazol-8-yl)piperidin-4-yl)-4-((2-(2,6-dioxopiperidin-3-yl)-1,3-dioxoisoindolin-4-yl)thio)butanamide], for which, in the assay with SR cells (SR, 72 h, read-out: IC50 (nM)/ SR cell line), the IC50 worked out at 143 nM. `CCc1cc2c(cc1N1CCC(N3CCN(C(=O)COCCOCCOCCOCCOCCSc4cccc5c4CN(C4CCC(=O)NC4=O)C5=O)CC3)CC1)C(C)(C)c1[nH]c3cc(C#N)ccc3c1C2=O` (centres unmarked) [SIAIS249070, 8-(4-(4-(17-((2-(2,6-dioxopiperidin-3-yl)-1-oxoisoindolin-4-yl)thio)-3,6,9,12,15-pentaoxaheptadecanoyl)piperazin-1-yl)piperidin-1-yl)-9-ethyl-6,6-dimethyl-11-oxo-6,11-dihydro-5H-benzo[b]carbazole-3-carbonitrile]: the IC50 in the assay on SR cells (setting [1]) was found to be 0.43 ± 0.11 nM. Regarding `CCc1cc2c(cc1N1CCC(N3CCN(C(=O)COCCOCCOCCSc4cccc5c4CN(C4CCC(=O)NC4=O)C5=O)CC3)CC1)C(C)(C)c1[nH]c3cc(C#N)ccc3c1C2=O` (centres unmarked) [SIAIS249068, 8-(4-(4-(2-(2-(2-(2-((2-(2,6-dioxopiperidin-3-yl)-1-oxoisoindolin-4-yl)thio)ethoxy)ethoxy)ethoxy)acetyl)piperazin-1-yl)piperidin-1-yl)-9-ethyl-6,6-dimethyl-11-oxo-6,11-dihydro-5H-benzo[b]carbazole-3-carbonitrile], the IC50 with SR cells (setting [1]) stood at 0.33 ± 0.06 nM. The same measure, in the same setting: as for `COc1cc(N2CCC(NC(=O)CSc3cccc4c3CN(C3CCC(=O)NC3=O)C4=O)CC2)ccc1Nc1ncc(Cl)c(Nc2ccccc2P(C)(C)=O)n1` (centres unmarked) [SIAIS219133, N-(1-(4-((5-chloro-4-((2-(dimethylphosphoryl)phenyl)amino)pyrimidin-2-yl)amino)-3-methoxyphenyl)piperidin-4-yl)-2-((2-(2,6-dioxopiperidin-3-yl)-1-oxoisoindolin-4-yl)thio)acetamide], the figure is 2.9 ± 0.1 nM; as for `CCc1cc2c(cc1N1CCC(NC(=O)CCCCCSc3cccc4c3CN(C3CCC(=O)NC3=O)C4=O)CC1)C(C)(C)c1[nH]c3cc(C#N)ccc3c1C2=O` (centres unmarked) [SIAIS262162, N-(1-(3-cyano-9-ethyl-6,6-dimethyl-11-oxo-6,11-dihydro-5H-benzo[b]carbazol-8-yl)piperidin-4-yl)-6-((2-(2,6-dioxopiperidin-3-yl)-1-oxoisoindolin-4-yl)thio)hexanamide], 11.3 nM; as for `COc1cc(N2CCC(NC(=O)COCCOCCSc3cccc4c3CN(C3CCC(=O)NC3=O)C4=O)CC2)ccc1Nc1ncc(Cl)c(Nc2ccccc2P(C)(C)=O)n1` (centres unmarked) [SIAIS219140, N-(1-(4-((5-chloro-4-((2-(dimethylphosphoryl)phenyl)amino)pyrimidin-2-yl)amino)-3-methoxyphenyl)piperidin-4-yl)-2-(2-(2-((2-(2,6-dioxopiperidin-3-yl)-1-oxoisoindolin-4-yl)thio)ethoxy)ethoxy)acetamide], 5.08 ± 0.62 nM. With `CCc1cc2c(cc1N1CCN(C3CCN(C(=O)CSc4cccc5c4C(=O)N(C4CCC(=O)NC4=O)C5=O)CC3)CC1)C(C)(C)c1[nH]c3cc(C#N)ccc3c1C2=O` (centres unmarked) [SIAIS219005, 8-(4-(1-(2-((2-(2,6-dioxopiperidin-3-yl)-1,3-dioxoisoindolin-4-yl)thio)acetyl)piperidin-4-yl)piperazin-1-yl)-9-ethyl-6,6-dimethyl-11-oxo-6,11-dihydro-5H-benzo[b]carbazole-3-carbonitrile], in the assay on SR cells (setting [1]), the IC50 amounted to 8.7 nM. Still for that read-out and setting: the result for `CCc1cc2c(cc1N1CCC(NC(=O)CSc3cccc4c3CN(C3CCC(=O)NC3=O)C4=O)CC1)C(C)(C)c1[nH]c3cc(C#N)ccc3c1C2=O` (centres unmarked) [SIAIS262161, N-(1-(3-cyano-9-ethyl-6,6-dimethyl-11-oxo-6,11-dihydro-5H-benzo[b]carbazol-8-yl)piperidin-4-yl)-2-((2-(2,6-dioxopiperidin-3-yl)-1-oxoisoindolin-4-yl)thio)acetamide] reads 1.86 nM; that for `COc1cc(N2CCC(NC(=O)COCCSc3cccc4c3CN(C3CCC(=O)NC3=O)C4=O)CC2)ccc1Nc1ncc(Cl)c(Nc2ccccc2P(C)(C)=O)n1` (centres unmarked) [SIAIS219139, N-(1-(4-((5-chloro-4-((2-(dimethylphosphoryl)phenyl)amino)pyrimidin-2-yl)amino)-3-methoxyphenyl)piperidin-4-yl)-2-(2-((2-(2,6-dioxopiperidin-3-yl)-1-oxoisoindolin-4-yl)thio)ethoxy)acetamide], 1.08 ± 0.1 nM; that for `CCc1cc2c(cc1N1CCC(N3CCN(CCCCCCSc4cccc5c4CN(C4CCC(=O)NC4=O)C5=O)CC3)CC1)C(C)(C)c1[nH]c3cc(C#N)ccc3c1C2=O` (centres unmarked) [SIAIS262159, 8-(4-(4-(6-((2-(2,6-dioxopiperidin-3-yl)-1-oxoisoindolin-4-yl)thio)hexyl)piperazin-1-yl)piperidin-1-yl)-9-ethyl-6,6-dimethyl-11-oxo-6,11-dihydro-5H-benzo[b]carbazole-3-carbonitrile], 1 nM. For the compound `CCc1cc2c(cc1N1CCC(N3CCN(C(=O)CCCSc4cccc5c4CN(C4CCC(=O)NC4=O)C5=O)CC3)CC1)C(C)(C)c1[nH]c3cc(C#N)ccc3c1C2=O` (centres unmarked) [SIAIS262098, 8-(4-(4-(4-((2-(2,6-dioxopiperidin-3-yl)-1-oxoisoindolin-4-yl)thio)butanoyl)piperazin-1-yl)piperidin-1-yl)-9-ethyl-6,6-dimethyl-11-oxo-6,11-dihydro-5H-benzo[b]carbazole-3-carbonitrile], the IC50 with SR cells (setting [1]) stood at 0.29 ± 0.21 nM. As to `COc1cc(N2CCC(NC(=O)CCCCSc3cccc4c3CN(C3CCC(=O)NC3=O)C4=O)CC2)ccc1Nc1ncc(Cl)c(Nc2ccccc2P(C)(C)=O)n1` (centres unmarked) [SIAIS219136, N-(1-(4-((5-chloro-4-((2-(dimethylphosphoryl)phenyl)amino)pyrimidin-2-yl)amino)-3-methoxyphenyl)piperidin-4-yl)-5-((2-(2,6-dioxopiperidin-3-yl)-1-oxoisoindolin-4-yl)thio)pentanamide], the IC50 with SR cells (setting [1]) amounted to 0.43 ± 0.09 nM. For `COc1cc(N2CCC(N3CCN(C)CC3)CC2)ccc1Nc1ncc(Cl)c(Nc2ccccc2P(C)(C)=O)n1` [Brigatinib, reference compound], the IC50 with SR cells (SR cells, 72 h, CCK-8, read-out: IC50 on proliferation of ALK-positive cells SR) came to 10.6 nM; in the assay with SR cells (setting [1]) it was 2.1 ± 1.2 nM. Turning to `CCc1cc2c(cc1N1CCC(NC(=O)CSc3cccc4c3C(=O)N(C3CCC(=O)NC3=O)C4=O)CC1)C(C)(C)c1[nH]c3cc(C#N)ccc3c1C2=O` (centres unmarked) [SIAIS219012, N-(1-(3-cyano-9-ethyl-6,6-dimethyl-11-oxo-6,11-dihydro-5H-benzo[b]carbazol-8-yl)piperidin-4-yl)-2-((2-(2,6-dioxopiperidin-3-yl)-1,3-dioxoisoindolin-4-yl)thio)acetamide], the IC50 with SR cells (setting [1]) came out at 146 nM. With `COc1cc(N2CCC(NC(=O)CCSc3cccc4c3CN(C3CCC(=O)NC3=O)C4=O)CC2)ccc1Nc1ncc(Cl)c(Nc2ccccc2P(C)(C)=O)n1` (centres unmarked) [SIAIS219134, N-(1-(4-((5-chloro-4-((2-(dimethylphosphoryl)phenyl)amino)pyrimidin-2-yl)amino)-3-methoxyphenyl)piperidin-4-yl)-3-((2-(2,6-dioxopiperidin-3-yl)-1-oxoisoindolin-4-yl)thio)propanamide], in the assay on SR cells (setting [1]), the IC50 is 2.7 ± 0.8 nM. Take `CCc1cc2c(cc1N1CCC(NC(=O)COCCOCCSc3cccc4c3C(=O)N(C3CCC(=O)NC3=O)C4=O)CC1)C(C)(C)c1[nH]c3cc(C#N)ccc3c1C2=O` (centres unmarked) [SIAIS219022, N-(1-(3-cyano-9-ethyl-6,6-dimethyl-11-oxo-6,11-dihydro-5H-benzo[b]carbazol-8-yl)piperidin-4-yl)-2-(2-(2-((2-(2,6-dioxopiperidin-3-yl)-1,3-dioxoisoindolin-4-yl)thio)ethoxy)ethoxy)acetamide]: in the assay with SR cells (setting [1]), the IC50 turned out to be 80.5 nM.
